In ChEMBL document CHEMBL1201862, “PubChem BioAssay data set” (2004):
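96-well plates; 48 h exposure; 5 concentrations. Endpoints by linear interpolation between flanking doses. Not reached: highest tested concentration assigned. GI50 is the concentration that inhibits growth by half.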 Calls of active or inactive are those of the source. No stated cut-off is given here; in the data, active = GI50 up to about 1.1 µM and inactive = higher.

Key:
Assay in all cases: DTP human tumour cell line panel, 48 h
[1] = test system: UO-31
[2] = test system: OVCAR-5
[3] = test system: SF-539
[4] = test system: OVCAR-4
[5] = test system: SW-620
[6] = test system: SNB-19
[7] = test system: TK-10
[8] = test system: 786-0
[9] = test system: A549
[10] = test system: NCI-H460
[11] = test system: HL-60
[12] = test system: CCRF-CEM
[13] = test system: SK-OV-3

Measured: GI50

CC(C)(C)c1cc(C(OCCl)(C(F)(F)F)C(F)(F)F)c2c(c1)C(C(F)(F)F)(C(F)(F)F)OC21c2ccccc2C(=O)c2ccccc21
inactive: [1] > 100 µM | [2] > 100 µM | [3] > 100 µM | [4] > 100 µM | [5] > 100 µM | [6] > 100 µM | [7] > 100 µM | [8] > 100 µM | [9] > 100 µM | [10] > 100 µM

CCOC(=O)/C(=C\c1ccc[nH]1)C(=O)c1ccccc1
inactive: [11] 23.3 µM | [12] 58.3 µM | [1] > 100 µM | [2] > 100 µM | [3] > 100 µM | [4] > 100 µM | [5] 52.7 µM | [6] > 100 µM | [13] > 100 µM | [7] > 100 µM | [8] > 100 µM | [9] > 100 µM | [10] > 100 µM

O=S(=O)(c1ccccc1)C1(C2(S(=O)(=O)c3ccccc3)CCN=N2)CCN=N1 (stereo unspecified)
inactive: [11] > 100 µM | [12] > 100 µM | [1] > 100 µM | [2] > 100 µM | [3] > 100 µM | [4] > 100 µM | [5] > 100 µM | [6] > 100 µM | [13] > 100 µM | [7] > 100 µM | [8] > 100 µM | [9] > 100 µM | [10] > 100 µM

COC(=O)CCCN(C)c1nc(N)n[nH]1
inactive: [11] > 100 µM | [12] > 100 µM | [1] > 100 µM | [2] > 100 µM | [3] > 100 µM | [4] > 100 µM | [5] > 100 µM | [6] > 100 µM | [13] > 100 µM | [7] > 100 µM | [8] > 100 µM | [9] > 100 µM | [10] > 100 µM

COc1cc2c(cc1OC)NC(=O)NC(Cc1ccc3c(c1)OCO3)CC2 (stereo unspecified)
inactive: [11] > 100 µM | [12] > 100 µM | [1] 76.9 µM | [2] > 100 µM | [4] > 100 µM | [5] > 100 µM | [6] > 100 µM | [13] > 100 µM | [7] > 100 µM | [8] > 100 µM | [9] > 100 µM | [10] > 100 µM

CC12Oc3ccc4ccccc4c3C1c1c(ccc3ccccc13)O2 (stereo unspecified)
inactive: [12] > 100 µM | [1] > 100 µM | [2] > 100 µM | [3] 78.2 µM | [4] 35.9 µM | [5] > 100 µM | [6] > 100 µM | [13] > 100 µM | [7] > 100 µM | [8] > 100 µM | [9] > 100 µM | [10] > 100 µM

[N-]=[N+]=N[C@H]1C[C@@H](CO)O[C@H]1n1cnc2c(N)ncnc21
inactive: [11] > 100 µM | [1] > 100 µM | [2] > 100 µM | [3] > 100 µM | [4] > 100 µM | [5] > 100 µM | [6] > 100 µM | [7] > 100 µM | [8] > 100 µM | [9] > 100 µM | [10] > 100 µM

Cc1ccc(C2=NN(C)COC2C(F)(F)F)cc1 (stereo unspecified)
inactive: [11] > 100 µM | [12] > 100 µM | [1] > 100 µM | [2] > 100 µM | [3] > 100 µM | [4] > 100 µM | [5] > 100 µM | [6] > 100 µM | [13] > 100 µM | [8] > 100 µM | [9] > 100 µM | [10] > 100 µM
